Data taken from ChEMBL document CHEMBL1201862, “PubChem BioAssay data set” (2004).
Activity calls are given as the source filed them.

Columns and labels:
[1] = molecular target: T1, Nuclear receptor subfamily 0 group B member 1 (Homo sapiens, UniProt P51843); assay: Luminescence-based cell-based high throughput dose response assay for inhibitors of the orphan nuclear receptor subfamily 0, group B, member 1 (DAX1; NR0B1). [Related pubchem assays (depositor defined):AID504766, AID504790]; assay type: functional
T1 sequence (P51843 whole entry): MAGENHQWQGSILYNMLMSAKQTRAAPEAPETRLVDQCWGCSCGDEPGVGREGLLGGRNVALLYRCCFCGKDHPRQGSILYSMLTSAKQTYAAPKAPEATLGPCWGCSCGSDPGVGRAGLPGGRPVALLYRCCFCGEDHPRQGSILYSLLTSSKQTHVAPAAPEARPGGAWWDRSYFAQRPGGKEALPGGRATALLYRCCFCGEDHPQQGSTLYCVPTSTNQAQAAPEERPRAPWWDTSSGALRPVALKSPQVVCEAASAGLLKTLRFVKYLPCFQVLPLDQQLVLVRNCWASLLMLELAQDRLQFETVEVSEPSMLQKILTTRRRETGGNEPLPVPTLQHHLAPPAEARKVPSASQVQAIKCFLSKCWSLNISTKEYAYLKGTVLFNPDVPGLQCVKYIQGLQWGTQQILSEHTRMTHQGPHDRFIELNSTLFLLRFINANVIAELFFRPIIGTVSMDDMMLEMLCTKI

HEK293 [2] = assay: cells; assay type: functional, cell-based; details: Homo sapiens
[3] = AlphaScreen signal interference compounds, dose response, artefact control for ARNT-TACC3 interaction inhibitor project, biochemical, luminescence, cherry-pick (AID 651705); assay type: functional;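 note: AlphaScreen bead proximity signal that flags compounds interfering with the detection technology; potency reflects signal decrease which marks the compound as an assay artifact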
HEK293 [4] = assay: inhibitors of LMP1-driven NF-kB reporter, dose response, cell-based, HEK293, luciferase, cherry-pick (AID 588343); assay type: functional; details: Homo sapiens
[5] = molecular target: T2, Sentrin-specific protease 7 (Homo sapiens, UniProt Q9BQF6); assay type: functional;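 note: Luminescence-based dose-response confirmation of ultra-high-throughput screening hits, measuring inhibition of SENP7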
T2 sequence (Q9BQF6 whole entry): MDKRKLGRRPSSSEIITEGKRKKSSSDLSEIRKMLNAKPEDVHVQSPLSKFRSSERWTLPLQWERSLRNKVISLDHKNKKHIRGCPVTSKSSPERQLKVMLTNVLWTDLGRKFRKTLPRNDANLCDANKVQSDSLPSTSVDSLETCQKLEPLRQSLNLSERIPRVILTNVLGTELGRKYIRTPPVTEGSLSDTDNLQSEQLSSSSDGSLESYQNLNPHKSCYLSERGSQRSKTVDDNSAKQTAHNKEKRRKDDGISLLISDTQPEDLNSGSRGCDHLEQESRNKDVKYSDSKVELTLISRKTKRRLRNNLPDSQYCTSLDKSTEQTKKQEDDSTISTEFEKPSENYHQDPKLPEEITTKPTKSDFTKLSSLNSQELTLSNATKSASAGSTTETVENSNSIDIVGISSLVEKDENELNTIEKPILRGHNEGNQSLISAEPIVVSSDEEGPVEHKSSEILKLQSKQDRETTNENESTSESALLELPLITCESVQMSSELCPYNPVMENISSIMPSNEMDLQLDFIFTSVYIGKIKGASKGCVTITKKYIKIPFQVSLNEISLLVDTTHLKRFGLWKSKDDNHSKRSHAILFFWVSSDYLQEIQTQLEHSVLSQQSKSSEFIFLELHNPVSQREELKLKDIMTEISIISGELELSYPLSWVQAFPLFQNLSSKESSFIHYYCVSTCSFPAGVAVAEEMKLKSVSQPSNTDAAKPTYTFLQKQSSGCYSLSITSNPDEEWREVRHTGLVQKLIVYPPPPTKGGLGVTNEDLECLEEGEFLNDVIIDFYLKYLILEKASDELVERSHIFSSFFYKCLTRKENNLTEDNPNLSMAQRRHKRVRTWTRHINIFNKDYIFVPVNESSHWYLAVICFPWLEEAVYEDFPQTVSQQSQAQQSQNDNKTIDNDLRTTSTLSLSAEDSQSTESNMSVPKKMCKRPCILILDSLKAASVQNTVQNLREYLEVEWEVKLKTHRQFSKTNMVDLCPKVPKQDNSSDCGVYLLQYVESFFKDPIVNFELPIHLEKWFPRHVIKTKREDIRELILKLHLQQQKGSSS

[6] = molecular target: T3, Sentrin-specific protease 6 (Homo sapiens, UniProt Q9GZR1); assay type: functional;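 note: Luminescence-based dose-response confirmatory assay of SENP6 inhibition, following up an ultra-high-throughput screen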
T3 sequence (Q9GZR1 whole entry): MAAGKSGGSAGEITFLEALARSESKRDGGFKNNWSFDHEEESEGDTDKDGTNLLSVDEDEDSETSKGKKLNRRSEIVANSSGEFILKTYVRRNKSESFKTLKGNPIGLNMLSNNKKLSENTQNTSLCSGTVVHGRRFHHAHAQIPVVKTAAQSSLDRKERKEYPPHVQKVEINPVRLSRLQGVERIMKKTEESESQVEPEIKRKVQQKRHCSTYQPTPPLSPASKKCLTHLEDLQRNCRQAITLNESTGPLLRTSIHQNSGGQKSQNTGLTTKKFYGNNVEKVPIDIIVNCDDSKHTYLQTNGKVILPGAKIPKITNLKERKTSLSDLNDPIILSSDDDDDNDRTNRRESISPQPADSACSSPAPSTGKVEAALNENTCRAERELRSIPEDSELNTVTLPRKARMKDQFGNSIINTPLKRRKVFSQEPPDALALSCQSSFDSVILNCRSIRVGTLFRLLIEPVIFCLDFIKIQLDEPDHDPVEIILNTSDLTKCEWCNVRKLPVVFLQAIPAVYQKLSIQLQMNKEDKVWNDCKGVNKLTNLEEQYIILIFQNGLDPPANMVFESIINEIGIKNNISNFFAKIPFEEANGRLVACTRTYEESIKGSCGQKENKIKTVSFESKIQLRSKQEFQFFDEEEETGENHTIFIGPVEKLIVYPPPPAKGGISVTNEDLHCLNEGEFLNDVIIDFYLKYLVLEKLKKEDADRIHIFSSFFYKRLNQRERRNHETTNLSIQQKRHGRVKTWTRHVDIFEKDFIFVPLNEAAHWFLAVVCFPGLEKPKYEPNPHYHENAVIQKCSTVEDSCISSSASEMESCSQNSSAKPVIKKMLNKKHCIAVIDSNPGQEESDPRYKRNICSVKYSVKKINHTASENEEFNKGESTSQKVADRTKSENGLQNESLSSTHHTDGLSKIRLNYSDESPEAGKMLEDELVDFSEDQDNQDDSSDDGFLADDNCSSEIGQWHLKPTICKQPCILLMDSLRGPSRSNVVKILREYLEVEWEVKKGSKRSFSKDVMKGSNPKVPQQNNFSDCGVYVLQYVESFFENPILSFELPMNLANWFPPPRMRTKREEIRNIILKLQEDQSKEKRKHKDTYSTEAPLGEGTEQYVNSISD

Caspase-3 = molecular target: T4, Caspase-3 (Homo sapiens, UniProt P42574); assay type: functional;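 note: Dose-response selectivity test against caspase-3 for candidate inhibitors of sentrin-specific proteases (SENPs)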
T4 sequence (P42574 whole entry): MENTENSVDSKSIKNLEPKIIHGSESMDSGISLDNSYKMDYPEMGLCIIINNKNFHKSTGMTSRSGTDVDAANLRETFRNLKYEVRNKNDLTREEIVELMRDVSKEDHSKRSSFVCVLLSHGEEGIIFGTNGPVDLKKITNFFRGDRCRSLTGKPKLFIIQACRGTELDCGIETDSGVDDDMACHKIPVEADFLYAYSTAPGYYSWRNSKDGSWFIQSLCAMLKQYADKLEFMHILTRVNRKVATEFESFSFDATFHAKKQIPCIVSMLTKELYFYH

[7] = molecular target: T5, Sentrin-specific protease 8 (Homo sapiens, UniProt Q96LD8); assay type: functional;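 note: luminescence read-out of SENP8 inhibition, dose-response confirmation following an ultra-high-throughput screen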
T5 sequence (Q96LD8 whole entry): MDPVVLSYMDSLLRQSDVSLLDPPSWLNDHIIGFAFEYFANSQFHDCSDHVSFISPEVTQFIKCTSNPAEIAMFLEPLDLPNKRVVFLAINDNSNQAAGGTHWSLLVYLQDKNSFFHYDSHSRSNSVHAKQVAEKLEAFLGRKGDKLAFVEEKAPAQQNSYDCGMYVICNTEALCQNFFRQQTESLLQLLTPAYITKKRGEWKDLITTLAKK

Trypsin = Trypsin (Sus scrofa, UniProt P00761); assay: porcine trypsin inhibitors, dose response, selectivity assay for Rce1 protease inhibitor project, biochemical, quenched peptide fluorescence, cherry-pick (AID 488789)
CAAX prenyl protease 2 [8] = molecular target: T6, CAAX prenyl protease 2 (Homo sapiens, UniProt Q9Y256); assay: human Rce1 protease inhibitors, dose response, biochemical, yeast membranes, quenched-peptide fluorescence, cherry-pick (AID 588849)
T6 sequence (Q9Y256 whole entry): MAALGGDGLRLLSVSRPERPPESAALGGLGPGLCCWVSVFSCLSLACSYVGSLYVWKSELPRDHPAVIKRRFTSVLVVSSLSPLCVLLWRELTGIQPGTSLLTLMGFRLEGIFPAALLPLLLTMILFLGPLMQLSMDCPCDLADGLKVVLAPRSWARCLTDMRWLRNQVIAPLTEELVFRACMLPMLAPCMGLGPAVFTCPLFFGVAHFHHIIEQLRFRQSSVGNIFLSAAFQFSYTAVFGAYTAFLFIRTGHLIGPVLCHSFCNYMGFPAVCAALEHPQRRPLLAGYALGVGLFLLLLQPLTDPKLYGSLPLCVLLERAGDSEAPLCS

CAAX prenyl protease 2 [9] = molecular target: T7, CAAX prenyl protease 2 (Saccharomyces cerevisiae S288c, UniProt Q03530); assay type: biochemical
T7 sequence (Q03530 whole entry): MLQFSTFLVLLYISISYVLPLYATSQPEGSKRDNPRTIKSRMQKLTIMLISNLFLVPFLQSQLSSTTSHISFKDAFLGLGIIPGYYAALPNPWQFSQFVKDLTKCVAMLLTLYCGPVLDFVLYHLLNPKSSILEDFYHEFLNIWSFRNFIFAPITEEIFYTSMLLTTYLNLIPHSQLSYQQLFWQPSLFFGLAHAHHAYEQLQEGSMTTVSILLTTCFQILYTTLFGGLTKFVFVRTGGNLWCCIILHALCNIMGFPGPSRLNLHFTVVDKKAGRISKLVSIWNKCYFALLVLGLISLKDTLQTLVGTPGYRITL

[10] = molecular target: T8, Carboxy-terminal domain RNA polymerase II polypeptide A small phosphatase 1 (Homo sapiens, UniProt Q9GZU7); assay: inhibitors of CTDSP1, concentration-response testing, biochemical assay, absorbance-based, actives from ultra-high-throughput screening (AID 540297); assay type: functional
T8 sequence (Q9GZU7 whole entry): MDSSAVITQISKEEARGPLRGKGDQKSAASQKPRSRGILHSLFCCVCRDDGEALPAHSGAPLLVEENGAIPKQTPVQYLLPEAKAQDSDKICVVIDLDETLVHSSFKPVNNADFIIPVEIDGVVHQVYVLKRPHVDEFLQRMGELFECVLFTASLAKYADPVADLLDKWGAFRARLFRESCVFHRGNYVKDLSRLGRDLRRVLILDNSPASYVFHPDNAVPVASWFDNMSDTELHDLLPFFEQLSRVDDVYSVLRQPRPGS

[11] = cytotoxicity in HEK-293T cells, dose response, cytotoxicity control for TCR NF-kB inhibitor project, luminescence, T-cell screen hits (AID 489026); assay type: functional, cell-based;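 note: cells exposed to compound about 14 hours before the viability readout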

Chain of Trypsin (P00761 whole entry): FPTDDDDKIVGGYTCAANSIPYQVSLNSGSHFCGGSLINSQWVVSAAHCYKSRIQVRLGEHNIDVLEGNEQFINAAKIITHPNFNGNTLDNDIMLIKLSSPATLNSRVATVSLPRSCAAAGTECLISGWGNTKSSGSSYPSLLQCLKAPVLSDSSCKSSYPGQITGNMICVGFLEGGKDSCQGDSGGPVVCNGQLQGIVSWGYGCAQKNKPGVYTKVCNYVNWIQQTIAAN

Which IC50 [1] does the source give for `COc1ccc(C2SCC(C(=O)O)N2C(C)=O)cc1OC` (centres undefined) here?
Its IC50 is > 67.5 µM (inactive).

And the IC50 (HEK293 [2])?
Its IC50 is > 67.5 µM (inactive).

For `Cc1nc2ncccn2c1-c1csc(Nc2ccccc2)n1`, which AC50 [3] is on record?
Its AC50 is 93.5 µM (active).

And the AC50 (HEK293 [4])?
The AC50 was 28.1 µM (active).

Which IC50 [1] does the source give for `Cc1cc(NC(=O)CSc2nc(N)c(NC(=O)c3ccco3)c(O)n2)no1` here?
Its IC50 is > 67.6 µM (inactive).

And the IC50 (HEK293 [2])?
The IC50 was > 67.6 µM (inactive).

With `Clc1ccc(-c2nnc(NC3=NCCCCC3)o2)cc1` as the compound, how does the IC50 [5] read?
The IC50 was 15.4 µM (active).

What about the IC50 [6] of the same compound?
Its IC50 is 30.1 µM (active).

What about the IC50 (Caspase-3) of the same compound?
The IC50 was 15 µM (active).

And the IC50 [7]?
The IC50 was 29.8 µM (active).

What about the AC50 (HEK293 [4]) of the same compound?
The AC50 was 1.84 µM (active).

What does the source list for `Nc1c(C(=O)NCCN2CCOCC2)c2nc3ccccc3nc2n1-c1cccc(F)c1`?
AC50 (Trypsin): 12.4 µM (active); AC50 (CAAX prenyl protease 2 [8]): 5.43 µM (active); AC50 (CAAX prenyl protease 2 [9]): 15 µM (active)

For `COc1cc2nc(NC(=O)c3ccco3)sc(=O)c2cc1OC`, which IC50 [10] is on record?
Its IC50 is 10.5 µM (active).

And the IC50 [11]?
Its IC50 is > 80 µM (inactive).

And the AC50 (HEK293 [4])?
Its AC50 is 6.84 µM (active).

With `Cc1ccc(CN2CCN(/N=C/c3ccccc3)CC2)cc1` as the compound, how does the IC50 [1] read?
Its IC50 is > 67.6 µM (inactive).

And the IC50 (HEK293 [2])?
Its IC50 is > 67.6 µM (inactive).
